Assay results from the supplement of paper PMC10307832.

Assays:
Experiment in all cases: relative viability (nuclei count vs DMSO), 5 days (fraction); higher = more cells survive
[1] = compound: CC1=CSC(=NC2CCCCC2)N1/N=C/C3=C(C(=C(C=C3)O)O)O [MIM1]
In short: (§1)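 Viability was read as treated-well nuclei divided by vehicle-well nuclei, using the median across plates. Lung cancer cell lines in 1536-well plates were kept overnight at 37 °C, pinned with five √10-spaced library-drug doses, and after 5 days were Hoechst-stained, imaged at 4× and counted in MetaXpress. Plates passed only with control CV below 25% and at least one doubling.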

[2] = compound: CCNC(=O)c1noc(-c2cc(C(C)C)c(O)cc2O)c1-c1ccc(CN2CCOCC2)cc1 [Luminespib]
In short: as §1

[3] = compound: CN1CCN(CCOc2cc(OC3CCOCC3)c3c(Nc4c(Cl)ccc5c4OCO5)ncnc3c2)CC1 [Saracatinib]
In short: as §1

[4] = compound: Cc1cn(-c2cc(NC(=O)c3ccc(C)c(Nc4nccc(-c5cccnc5)n4)c3)cc(C(F)(F)F)c2)cn1 [Nilotinib]
In short: as §1

[5] = compound: Nc1cccc2c1CN(C1CCC(=O)NC1=O)C2=O [Lenalidomide]
In short: as §1

Cell Line	relative viability ([1]; 0.2 µM)	relative viability ([1]; 0.6325 µM)	relative viability ([1]; 2 µM)	relative viability ([1]; 6.325 µM)	relative viability ([1]; 20 µM)	relative viability ([2]; 0.002 µM)	relative viability ([2]; 0.006325 µM)	relative viability ([2]; 0.01 µM, anchor plate)	relative viability ([2]; 0.02 µM)	relative viability ([2]; 0.06325 µM)	relative viability ([2]; 0.2 µM)	relative viability ([3]; 0.02 µM)	relative viability ([3]; 0.2 µM)	relative viability ([3]; 0.6325 µM)	relative viability ([3]; 2 µM)	relative viability ([4]; 0.003162 µM)	relative viability ([4]; 0.01 µM)	relative viability ([4]; 0.03162 µM)	relative viability ([4]; 0.1 µM)	relative viability ([5]; 0.253 µM)	relative viability ([5]; 0.8 µM)	relative viability ([5]; 2.53 µM)	relative viability ([5]; 8 µM)	relative viability ([4]; 0.001 µM)
201T	1	1	0.987	0.555	0.483	0.973	0.896	1.06	0.88	0.969	0.295	0.99	0.826	0.923	0.722	1.11	0.979	1.02	0.47	0.985	0.835	1.01	0.96	
A549	0.967	0.933	0.946	0.782	0.333	1.04	0.923		0.432	0.085	0.0435	1.04	0.81	1.09	0.898	1.21	1.1	0.739	0.665	0.986	0.97	1.13	0.954	0.948
A-427	1.05	0.746	0.973	0.783	0.218	1.06	0.906	1.03	0.793	0.395	0.244	1.03	0.904	0.935	0.924	1.06	1.08	0.871	0.182	1.04	0.979	1.15	0.918	0.955
ABC-1	0.902	1.15	0.9	0.485	0.264	0.993	0.865	0.718	0.63	0.239	0.2	0.942	0.811	1	0.899	0.907	1.05	0.78	0.322	1.01	0.774	0.993	0.825	1
BEN	1.02	0.914	1.01	0.853	0.323	0.944	0.925	0.383	0.442	0.656	0.355	1.11	0.755	1.05	0.759	1.03	0.929	0.926	0.786	1.09	0.892	1.12	0.731	0.876
CAL-12T	1.05	0.819	0.92	0.708	0.434	1.03	0.933	0.47	0.591	0.136	0.13	1.06	0.996	1.14	0.903	0.91		0.688	0.654	0.979	1.04	1.27	1.16	0.928
COR-L23	0.995	1.11	1.01	0.77	0.424	1.14	0.913	0.672	0.925	0.091	0.0907	1.05	0.856	0.905	0.975	1.34	1.2	0.704	0.768	1.01	0.957	1.2	1.22	0.877
